Paper PMC6791878, “Evaluation of integrin αvβ6 cystine knot PET tracers to detect cancer and idiopathic pulmonary fibrosis” (Nature Communications, 2019)
Where two headings read alike, the source gives them in different places.

Assays:
human integrin αvβ6 = target: T1, human integrin αvβ6 (Homo sapiens, UniProt P06756+P18564, DEL708-788); assay: Competition binding (IC50) against yeast surface-displayed R01-MG; conditions: for binding affinity for integrin avb6 in competition binding (IC50), in words: compete with R01-MG displayed on yeast
T1 construct: purchased R&D Systems

Sprague Dawley rats = type: in vivo, rat
Procedure: Groups of 5 animals sex^−1 were sacrificed on Study Days 3 (48 h) and 15 for evaluation of clinical pathology and organ toxicity. […] Parameters evaluated for test article effect included survival, clinical observations, body weight, body weight gain, clinical pathology, gross pathology, organ weights, and microscopic pathology.
The purpose of this study was to evaluate the toxicity of [19F]FP-R 1-MG-F2 following a single […]
intra ven ous dose in rats. This study consisted of one test article treatment group of ten male and ten fem ale Spr ague-Dawley rats dosed with [19F]FP-R 1-MG-F2 (note - sm all m olecule […]
[…] An additio na l grou p of ten m ales and ten females received the vehicle, 10% Ethanol in Sterile Saline, and ser ved as the control. All rats received a dose volum e of 5 m L/k g. T he rats were dosed intravenous ly onc e on Stud y Da y 1.
Five m ale and five fem ale rats from each group were bled on Stud y Da y 3 and the rem aining rats were bled on Stud y D ay 15. All an im als were e u than ized a nd necrops ied f ollo wing b loo d collect ion . Param eters evalu ated f or test art icle ef f ect inclu ded sur viva l, clin ica l obser vat ions, bod y weight, bod y weight gain, clinical patholog y, gross pathology, organ weights, and […]
the study. No abnorm al findings were indicated dur ing mortality checks (cagesides) or hands-on […]
be related to treatm ent related.
Under the conditions of this study, there were no treatm ent related findings in Sprague Dawley rats three or fifteen da ys after a single intravenous dose of [19F]FP-R01-MG-F2 at 1.10 mg/kg. […]
intravenous dose in rats. […]
The test article (TA), [19F]FP-R 1-MG-F2, was received from the Sponsor on Aug ust 25, […]
2014, described as a wh ite po wd er . The test article was stored frozen in a g lass vial.
Copies of the Test Artic le Data Sheets are included in Appendix D.
Note: Test article nam e as per the Qualit y Control Record (Appendix D) is listed as FP-GLY-36-Gly-NH2, which represents the chem ical structure. T he test article is referred to b y the comm ercial nam e provided b y the client ([19F]FP-R 1-MG-F2) throughout this report and […]
Name Lot No. Supplier Purit y
The vehicle used in this study was 10% Ethanol in Sterile Saline (0.9% sodium chloride, USP). The vehic le com ponents were purchased commercially b y SoBran and stored at room tem perature in accordance with the m anufacturer instructions. Copies of the Certificate of Anal yses for the lots of 10% Ethanol and Sterile Saline used are included in […]
Name Lot No. Supplier Concentration
Etha no l (20 0 pro of ), USP SHBB0 212 V Sigm a Aldrich; Sa int 99.87% […]
0.9% Sod ium Chlor ide, USP C886374 Baxter; C le ve lan d, 0.888% […]
The 0.22 mg/mL test article solution was pr epar ed b y adding 40 mL of 10% ethanol solution (vehicle control) to 8.8 mg of the test article, mixed gently, and then filtered using a 2µ sterile syringe filter. The pH of the 10% ethanol solution wa s adj us ted us ing HCl and NaO H to achieve a pH of 7.4. The vehicle was passed through a 2µ sterile syringe filter af t er pH […]
On October 2, 2014, 21 male and 21 female Sprague-Dawle y rats were obtained from Harlan, Frederick , MD. The supplier verified that the anim als were free of specific active inf ectious dise ases prior to arriva l at the SoBra n f acilit y. At init iat ion of dosing , the m ale and fem ale rats were 7 week s of age, (Date of Birth: 8/15/14). At ra ndom iza tion th e bod y weights of the rats used on stud y ranged from 199.05 to 218.61 gram s (m ales) […]
Rats were chosen for use in this stud y since the y are considered an acceptable anim al model for the rodent species for acute toxicity tests prior to clinical use.
The animals were housed following the specifications recommended in The Guide for the […]

pancreatic cancer = assay: [18F]FP-R01-MG-F2 vs [18F]FDG PET/CT in a pancreatic cancer patient (Stanford); conditions: FDG, 1 hr
Procedure: The line was flushed with at least 10 ml normal saline after injection. • Blood samples for blood time activity measurements were taken at 1, 3, 5, and 10 min after tracer administration and then at 30-minute intervals for up to 3 h after tracer injection. The counts in whole blood and plasma were measured by gamma counter (Perkin Elmer Wizard 1470). […] The scan was performed over the abdominal region to include the pancreas. Attenuation correction was employed via CT (120 kV, 10 mA). […] The scan was performed over the chest region. Attenuation correction was employed via CT (120 kV, 10 mA). • Static total-body (vertex-to-toe) PET/CT scans were acquired at 60 min and 120 min post injection. CT was performed at 120 kV; it was dose-modulated based on body habitus with current ranging from 10-105 mA for the 60-minute scan. […] EKG data was analyzed to assess changes in overall rhythm of the heart. • On the day of the study, participants were asked to void frequently to reduce radiation exposure. Urine samples were collected at prior to tracer administration (baseline), prior to the static PE scans, at the end of the study day 1, and at the follow up visits 1 day and 7 days after tracer administration.
Upon co-registration of the PET and CT images, the CT images were used to determine regions of interest for the organs or tissues reported in the manuscript. These ROIs were applied to the PET images of the brain, pituitary gland, breast, lower and upper large intestine, small intestine, stomach, pancreas, heart wall, liver, lung, muscle, red marrow, bone, skin, and thyroid gland. For high uptake organs such as the kidneys, bladder and for the whole body, threshold-based segmentation of PET images were used to determine a close-fitting ROI around the entire organ or whole body. In order to determine accuracy, these PET-derived ROIs were compared to the CT overlay for a close match.

[1] = Day 3, Group 2 males, p < 0.05, within historical range

T1 sequence (P06756 31-992 limits assumed, stated change not applied): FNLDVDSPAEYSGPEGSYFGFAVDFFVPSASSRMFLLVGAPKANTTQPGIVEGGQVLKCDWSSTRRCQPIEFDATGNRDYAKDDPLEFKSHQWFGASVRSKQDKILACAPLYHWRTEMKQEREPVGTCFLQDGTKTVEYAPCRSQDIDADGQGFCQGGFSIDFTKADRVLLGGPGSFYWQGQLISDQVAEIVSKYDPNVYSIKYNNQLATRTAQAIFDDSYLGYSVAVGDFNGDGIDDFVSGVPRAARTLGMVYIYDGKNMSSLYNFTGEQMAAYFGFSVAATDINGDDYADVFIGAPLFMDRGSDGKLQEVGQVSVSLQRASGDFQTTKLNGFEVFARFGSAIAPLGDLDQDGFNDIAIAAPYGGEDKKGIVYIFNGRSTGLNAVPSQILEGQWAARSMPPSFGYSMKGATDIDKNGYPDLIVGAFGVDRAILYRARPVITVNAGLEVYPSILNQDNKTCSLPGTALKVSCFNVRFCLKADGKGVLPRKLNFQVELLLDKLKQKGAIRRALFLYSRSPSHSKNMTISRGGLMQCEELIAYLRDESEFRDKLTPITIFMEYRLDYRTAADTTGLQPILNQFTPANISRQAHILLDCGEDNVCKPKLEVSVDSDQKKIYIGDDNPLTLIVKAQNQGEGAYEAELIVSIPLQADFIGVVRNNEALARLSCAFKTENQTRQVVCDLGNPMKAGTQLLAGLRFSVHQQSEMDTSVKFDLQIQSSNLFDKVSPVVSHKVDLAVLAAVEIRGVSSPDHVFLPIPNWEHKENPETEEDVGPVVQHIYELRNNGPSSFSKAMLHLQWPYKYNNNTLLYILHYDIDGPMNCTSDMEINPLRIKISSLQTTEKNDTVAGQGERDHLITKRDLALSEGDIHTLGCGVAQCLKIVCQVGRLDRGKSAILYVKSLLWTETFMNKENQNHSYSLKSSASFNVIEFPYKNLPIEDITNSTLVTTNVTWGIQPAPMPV
T1 sequence (P18564 22-707 limits assumed, stated change not applied): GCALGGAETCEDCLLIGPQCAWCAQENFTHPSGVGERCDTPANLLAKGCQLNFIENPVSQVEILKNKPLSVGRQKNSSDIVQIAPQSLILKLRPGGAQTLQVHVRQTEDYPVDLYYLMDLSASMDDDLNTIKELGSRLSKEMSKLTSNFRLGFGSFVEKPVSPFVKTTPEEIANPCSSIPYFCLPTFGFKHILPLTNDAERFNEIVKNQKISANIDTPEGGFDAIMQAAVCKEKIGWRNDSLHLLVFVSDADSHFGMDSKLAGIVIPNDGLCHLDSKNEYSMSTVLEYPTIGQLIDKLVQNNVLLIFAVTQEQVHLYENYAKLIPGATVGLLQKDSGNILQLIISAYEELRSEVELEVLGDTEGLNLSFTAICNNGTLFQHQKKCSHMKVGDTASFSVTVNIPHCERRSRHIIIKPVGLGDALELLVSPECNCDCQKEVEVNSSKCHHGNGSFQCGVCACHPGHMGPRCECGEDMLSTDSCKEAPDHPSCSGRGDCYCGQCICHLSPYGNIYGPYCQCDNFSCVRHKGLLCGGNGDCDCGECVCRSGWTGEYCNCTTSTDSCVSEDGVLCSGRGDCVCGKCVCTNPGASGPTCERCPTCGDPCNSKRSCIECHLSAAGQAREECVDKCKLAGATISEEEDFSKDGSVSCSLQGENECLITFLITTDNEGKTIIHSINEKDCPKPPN

CC[C@H](C)[C@@H]1NC(=O)[C@@H](NC(=O)CNC(=O)C(C)F)CSSC[C@@H]2NC(=O)[C@H](C)NC(=O)CNC(=O)[C@@H]3CCCN3C(=O)[C@@H]3CSSC[C@@H](C(=O)NCC(N)=O)NC(=O)[C@H](Cc4ccc(O)cc4)NC(=O)CNC(=O)[C@H](CC(N)=O)NC(=O)CNC(=O)[C@H](CCCNC(=N)N)NC(=O)[C@H](CSSC[C@H](NC(=O)[C@H](CCCNC(=N)N)NC(=O)[C@H](Cc4ccccc4)NC(=O)[C@H](CC(C)C)NC(=O)[C@H](CC(C)C)NC(=O)[C@H]([C@@H](C)O)NC(=O)CNC(=O)[C@H](CC(C)C)NC(=O)[C@H](CC(=O)O)NC(=O)[C@H]([C@@H](C)O)NC(=O)[C@H](CCCNC(=N)N)NC(=O)CNC(=O)[C@H](CC(N)=O)NC(=O)[C@H](CC(C)C)NC1=O)C(=O)N[C@@H](CCCNC(=N)N)C(=O)N[C@@H](CCCNC(=N)N)C(=O)N[C@@H](CC(=O)O)C(=O)N[C@@H](CO)C(=O)N[C@@H](CC(=O)O)C(=O)N3)NC(=O)[C@H]([C@@H](C)CC)NC2=O (stereo partly shown) [[^19F]FP-R01-MG-F1]
binding affinity for integrin avb6 in competition binding (IC50), in words (human integrin αvβ6): subnanomolar

CC[C@H](C)[C@@H]1NC(=O)[C@@H](NC(=O)CNC(=O)[C@@H](C)F)CSSC[C@@H]2NC(=O)[C@H](C)NC(=O)CNC(=O)[C@@H]3CCCN3C(=O)[C@@H]3CSSC[C@@H](C(=O)NCC(N)=O)NC(=O)[C@H](Cc4ccc(O)cc4)NC(=O)CNC(=O)[C@H](CC(N)=O)NC(=O)CNC(=O)[C@H](CCCNC(=N)N)NC(=O)[C@H](CSSC[C@H](NC(=O)[C@H](CCCNC(=N)N)NC(=O)[C@H](Cc4ccccc4)NC(=O)[C@H](CC(C)C)NC(=O)[C@H](CC(C)C)NC(=O)[C@H]([C@@H](C)O)NC(=O)CNC(=O)[C@H](CC(C)C)NC(=O)[C@H](CC(=O)O)NC(=O)[C@H]([C@@H](C)O)NC(=O)[C@H](CCCNC(=N)N)NC(=O)CNC(=O)[C@H](CC(N)=O)NC(=O)[C@H](CC(C)C)NC1=O)C(=O)N[C@@H](CCCNC(=N)N)C(=O)N[C@@H](CCCNC(=N)N)C(=O)N[C@@H](CC(=O)O)C(=O)N[C@@H](CO)C(=O)N[C@@H](CC(=O)O)C(=O)N3)NC(=O)[C@H]([C@@H](C)CC)NC2=O [[^19F]FP-R01-MG-F2]
IC50 (human integrin αvβ6): 0.56 ± 0.46 nM | binding affinity for integrin avb6 in competition binding (IC50), in words (human integrin αvβ6): subnanomolar | Organ weight, Brain, mean (Sprague Dawley rats; Day 3, Group 2 females): 1.5766 | Organ weight, Eyes with optic nerve, mean (Sprague Dawley rats; Day 3, Group 2 females): 0.2641 | Organ weight, Heart, mean (Sprague Dawley rats; Day 3, Group 2 females): 0.6540 | Organ weight, Kidneys, mean (Sprague Dawley rats; Day 3, Group 2 females): 1.2874 | Organ weight, Liver, mean (Sprague Dawley rats; Day 3, Group 2 females): 5.9521 | Organ weight, Lungs, mean (Sprague Dawley rats; Day 3, Group 2 females): 1.5304 | Organ weight, Ovaries, mean (Sprague Dawley rats; Day 3, Group 2 females): 0.1595 | Organ weight, Spleen, mean (Sprague Dawley rats; Day 3, Group 2 females): 0.4955 | Organ weight, Thyroid (both lobes with parathyroid), mean (Sprague Dawley rats; Day 3, Group 2 females): 0.0479 | Organ weight, Brain, mean (Sprague Dawley rats; Day 3, Group 2 males): 1.7081 | Organ weight, Eyes with optic nerve, mean (Sprague Dawley rats; Day 3, Group 2 males): 0.3216 | Organ weight, Heart, mean (Sprague Dawley rats; Day 3, Group 2 males): 0.9438 | Organ weight, Kidneys, mean (Sprague Dawley rats; Day 3, Group 2 males): 1.7156 | Organ weight, Liver, mean (Sprague Dawley rats; Day 3, Group 2 males): 8.4988 | Organ weight, Lungs, mean (Sprague Dawley rats; Day 3, Group 2 males): 1.6368 | Organ weight, Spleen, mean (Sprague Dawley rats; Day 3, Group 2 males): 0.6601 | Organ weight, Testes, mean (Sprague Dawley rats; Day 3, Group 2 males): 2.9952 | Organ weight, Thyroid (both lobes with parathyroid), mean (Sprague Dawley rats; Day 3, Group 2 males): 0.0299 | alkaline phosphatase (ALP) vs control (Sprague Dawley rats; Day 3, Group 2 males, p < 0.05, not believed biologically meaningful): increase | absolute large unstained cell counts (ALUC) vs control (Sprague Dawley rats; [1]): increased | absolute lymphocyte counts (ALY) vs control (Sprague Dawley rats; [1]): increased | absolute monocyte counts (AMO) vs control (Sprague Dawley rats; [1]): increased | white blood cell counts (WBC) vs control (Sprague Dawley rats; [1]): increased | Organ weight, Brain, mean (Sprague Dawley rats; Day 15, Group 2 females): 1.5915 | Organ weight, Eyes with optic nerve, mean (Sprague Dawley rats; Day 15, Group 2 females): 0.2965 | Organ weight, Heart, mean (Sprague Dawley rats; Day 15, Group 2 females): 0.7068 | Organ weight, Kidneys, mean (Sprague Dawley rats; Day 15, Group 2 females): 1.3894 | Organ weight, Liver, mean (Sprague Dawley rats; Day 15, Group 2 females): 7.3444 | Organ weight, Lungs, mean (Sprague Dawley rats; Day 15, Group 2 females): 1.5063 | Organ weight, Ovaries, mean (Sprague Dawley rats; Day 15, Group 2 females): 0.1569 | Organ weight, Spleen, mean (Sprague Dawley rats; Day 15, Group 2 females): 0.5718 | Organ weight, Thyroid (both lobes with parathyroid), mean (Sprague Dawley rats; Day 15, Group 2 females): 0.0355 | activated partial thromboplastin time vs control (Sprague Dawley rats; Day 15, Group 2 females, p < 0.05, within historical range): decrease | Organ weight, Brain, mean (Sprague Dawley rats; Day 15, Group 2 males): 1.5942 | Organ weight, Eyes with optic nerve, mean (Sprague Dawley rats; Day 15, Group 2 males): 0.3204 | Organ weight, Heart, mean (Sprague Dawley rats; Day 15, Group 2 males): 1.0593 | Organ weight, Kidneys, mean (Sprague Dawley rats; Day 15, Group 2 males): 2.1137 | Organ weight, Liver, mean (Sprague Dawley rats; Day 15, Group 2 males): 11.2236 | Organ weight, Lungs, mean (Sprague Dawley rats; Day 15, Group 2 males): 2.0208 | Organ weight, Spleen, mean (Sprague Dawley rats; Day 15, Group 2 males): 0.6991 | Organ weight, Testes, mean (Sprague Dawley rats; Day 15, Group 2 males): 3.5798 | Organ weight, Thyroid (both lobes with parathyroid), mean (Sprague Dawley rats; Day 15, Group 2 males): 0.0238 | mean corpuscular hemoglobin (MCH) vs control (Sprague Dawley rats; Day 15, Group 2 males, p < 0.05, within historical range): increase | alanine aminotransferase (ALT) vs control (Sprague Dawley rats; Days 3 and 15, Group 2 males, p < 0.05, not believed biologically meaningful): elevated | organ weights and microscopic pathology findings (Sprague Dawley rats; […] single i.v.): No treatm ent-related findings | bodyweights of treated females on Day 3 vs control (Sprague Dawley rats; p < 0.05, judged not treatment related): significant increase

OC[C@H]1O[C@@H](O)[C@H]([18F])[C@@H](O)[C@@H]1O [FDG]
Bl, PET uptake (pancreatic cancer): 21.1 | Bn, PET uptake (pancreatic cancer): 1.4 | Br, PET uptake (pancreatic cancer): 8.1 | Brs, PET uptake (pancreatic cancer): 0.32 | CA, PET uptake (pancreatic cancer): 4.1 | HW, PET uptake (pancreatic cancer): 2 | LLI, PET uptake (pancreatic cancer): 2.2 | Ln, PET uptake (pancreatic cancer): 0.59 | Lv, PET uptake (pancreatic cancer): 2.9 | Ms, PET uptake (pancreatic cancer): 0.53 | RM, PET uptake (pancreatic cancer): 0.29 | SI, PET uptake (pancreatic cancer): 2.5 | Sk, PET uptake (pancreatic cancer): 0.38 | Sp, PET uptake (pancreatic cancer): 2.9 | St, PET uptake (pancreatic cancer): 0.16 | Tr, PET uptake (pancreatic cancer): 0.9 | ULI, PET uptake (pancreatic cancer): 1.8 | WB, PET uptake (pancreatic cancer): 0.79
